Results published in patent US20240116853A1, “2-HYDROXY-5-[2-(4-(TRIFLUOROMETHYLPHENYL)ETHYLAMINO)]BENZOIC ACID CRYSTAL FORMS AND PREPARATION METHOD THEREFOR” (GNT PHARMA CO., LTD., priority 2020, published 2024).
In brackets after ≈: the same amount, converted by molar mass.

Legend:
[1] = system: Alzheimer's disease; details: background statement; cited from earlier work
[2] = crystalline form stability test (XRPD after storage at 40° C. and 60% RH for three months); format: physicochemical
Procedure: In the present disclosure, the experimental conditions of X-ray powder diffraction are as follows. The test was performed by an X-ray powder diffractometer (radiation source Cu-kα, μ=1.5418 Å), and the XRPD spectrum with 2θ value of 3˜40° was scanned. The XRPD spectra of crystalline form I in Example 1 and crystalline form II in Example 2 are shown in FIG. 1 and FIG. 5, respectively, and the XRPD data are shown in Table 1. In order to test the stability of the crystalline form, the crystalline form I in Example 1 and the crystalline form II in Example 2 were subjected to powder diffraction test after being left under 40° C. and 60% relative humidity (RH) conditions for three months, and the results are shown in FIG. 1 and FIG. 5, respectively.
Crystalline form stability test: a certain amount of samples were left under 40° C. and 60% RH conditions for three months, and their powder diffraction results were tested, as shown in FIG. 1.
Crystalline form stability test: a certain amount of samples were left under 40° C. and 60% RH conditions for three months, and their powder diffraction results were tested, as shown in FIG. 5.

[3] = apparent solubility tested by HPLC; format: physicochemical; details: for Chromatographic peak area: HPLC peak area of the apparent solubility test; for apparent solubility compared with raw material: HPLC, versus crude raw materials

Structure (SMILES)	effect on Alzheimer's disease in clinical trials [1]	crystalline form stability (XRPD characteristic peaks versus initial time) [2]	Chromatographic peak area [3]	apparent solubility compared with raw material [3]	Solubility (apparent solubility) ([3]; tested by HPLC) [µg/mL]	solubility ([3]; thermodynamic from solid, tested by HPLC) [µg/mL]
O=C(O)c1cc(NCCc2ccc(C(F)(F)F)cc2)ccc1O [2-hydroxy-5-[2-(4-(trifluoromethylphenyl)ethylamino)]benzoic acid]	good inhibitory effect on Alzheimer's disease	–	–	–	–	–
O=C(O)c1cc(NCCc2ccc(C(F)(F)F)cc2)ccc1O [Crystalline form I, 2-hydroxy-5-[2-(4-(trifluoromethylphenyl)ethylamino)]benzoic acid]	–	stable and unchanged	263684	higher apparent solubility	1880 (≈ 5.78 mM)	–
O=C(O)c1cc(NCCc2ccc(C(F)(F)F)cc2)ccc1O [Crystalline form II, 2-hydroxy-5-[2-(4-(trifluoromethylphenyl)ethylamino)]benzoic acid]	–	relatively stable	311308	higher apparent solubility	2600 (≈ 7.99 mM)	–
O=C(O)c1cc(NCCc2ccc(C(F)(F)F)cc2)ccc1O [Raw material, 2-hydroxy-5-[2-(4-(trifluoromethylphenyl)ethylamino)]benzoic acid]	–	–	249333	–	–	1770 (≈ 5.44 mM)
